Data published in patent publication US7101888B2, “Oral liquid tolterodine composition” (Pharmacia & UpJohn Company, priority 2002, dated 2006).

What was measured:
[1] = system: muscarinic receptors of the salivary gland; settings: compared with oxybutynin; cited from earlier work
[2] = Chemical stability of tolterodine in aqueous media; type: physicochemical

Q: Which results are given for `Cc1ccc(O)c([C@H](CCN(C(C)C)C(C)C)c2ccccc2)c1` [tolterodine, (R)-N,N-diisopropyl-3-(2-hydroxy-5-methylphenyl)-3-phenylpropanamine]?
A: affinity for the muscarinic receptors of the salivary gland relative to oxybutynin [1]: about eight times lower; stability in aqueous solutions of tolterodine salts ([2]; alkaline pH): unstable; pH of optimum stability ([2]; aqueous solutions of tolterodine salts): about 4; chemical stability in aqueous media ([2]; neutral to alkaline pH levels): chemical instability
